Our source for the EC50 values is patent US8933075B2, “Compounds useful as antiviral agents, compositions, and methods of use” (priority 2010, dated 2015).

This assay concerns A/Udorn/72 (H3N2) virus. Nature of the assay: Plaque assay in MDCK cells: EC50 by reduction of plaque number. The assay is classed as cell-based, influenza virus. As to conditions: MDCK.

Usually EC50 stands for the concentration needed to bring the measured effect to its halfway point. Consider `COc1cc(O)cc(-c2cc(CCCOC(=O)[C@H](CC(=O)OC(C)(C)C)NC(=O)OC(C)(C)C)c(/C=C3\SC(=S)N(C4CC5CCC4C5)C3=O)o2)c1` (stereo partly drawn) [Compound 149], for which the EC50 was less than 0.1 µM.
`COc1cc(OC)cc(-c2cc(CCCCCOC(=O)[C@H](CC(N)=O)NC(=O)OC(C)(C)C)c(/C=C3\SC(=S)N(C4CC5CCC4C5)C3=O)o2)c1` (stereo partly drawn) [Compound 150] yielded an EC50 of less than 0.1 µM.
The result for `COc1cc(OC)cc(-c2cc(CCCOC(=O)[C@@H](N)Cc3ccccc3)c(/C=C3\SC(=S)N(C4CC5CCC4C5)C3=O)o2)c1` (stereo partly drawn) [Compound 153] reads less than 0.1 µM.
`COc1cc(OC)cc(-c2cc(CCCOC(=O)[C@@H](N)c3ccccc3)c(/C=C3\SC(=S)N(C4CC5CCC4C5)C3=O)o2)c1` (stereo partly drawn) [Compound 154] registered an EC50 of less than 0.1 µM.
On to `COc1cc(OC)cc(-c2cc(CCCNC(=O)[C@H](CC(=O)OC(C)(C)C)NC(=O)OC(C)(C)C)c(/C=C3\SC(=S)N(C4CC5CCC4C5)C3=O)o2)c1` (stereo partly drawn) [Compound 158], for which the EC50 is less than 0.1 µM.
For `COc1cc(OC)cc(-c2cc(CCCNC(=O)[C@H](CC(C)C)NC(=O)OCC3c4ccccc4-c4ccccc43)c(/C=C3\SC(=S)N(C4CC5CCC4C5)C3=O)o2)c1` (stereo partly drawn) [Compound 159], the EC50 is less than 0.1 µM.
The result for `COc1cc(OC)cc(-c2cc(CCCNC(=O)[C@H](Cc3ccc(OC(C)(C)C)cc3)NC(=O)OC(C)(C)C)c(/C=C3\SC(=S)N(C4CC5CCC4C5)C3=O)o2)c1` (stereo partly drawn) [Compound 160] reads less than 0.1 µM.
Consider `COc1cc(OC)cc(-c2cc(CCCNC(=O)[C@H](Cc3cn(C(c4ccccc4)(c4ccccc4)c4ccccc4)cn3)NC(=O)OCC3c4ccccc4-c4ccccc43)c(/C=C3\SC(=S)N(C4CC5CCC4C5)C3=O)o2)c1` (stereo partly drawn) [Compound 161], for which the EC50 was less than 0.1 µM.
The value for `COc1cc(OC)cc(-c2cc(CCCNC(=O)[C@@H](NC(=O)OC(C)(C)C)c3ccccc3)c(/C=C3\SC(=S)N(C4CC5CCC4C5)C3=O)o2)c1` (stereo partly drawn) [Compound 162] was less than 0.1 µM.
The value for `COc1cc(OC)cc(-c2cc(CCCNC(=O)[C@@H](N)CC(=O)O)c(/C=C3\SC(=S)N(C4CC5CCC4C5)C3=O)o2)c1` (stereo partly drawn) [Compound 169] was less than 0.1 µM; that for `COc1cc(OC)cc(-c2cc(CCCNC(=O)[C@@H]3CCCN3)c(/C=C3\SC(=S)N(C4CC5CCC4C5)C3=O)o2)c1` (stereo partly drawn) [Compound 172] was less than 0.1 µM; that for `COc1cc(O)cc(-c2cc(CCCNC(=O)[C@@H](N)CCCN=C(N)N)c(/C=C3\SC(=S)N(C4CC5CCC4C5)C3=O)o2)c1` (stereo partly drawn) [Compound 175] was less than 0.1 µM.
The value for `COC(=O)[C@@H](O)[C@H](O)C(=O)OCCCc1cc(-c2ccc(F)cc2)oc1/C=C1\SC(=S)N(C2CC3CCC2C3)C1=O` (stereo partly drawn) [Compound 177] was less than 0.1 µM; that for `O=C1/C(=C/c2oc(-c3ccc(Cl)cc3)cc2CCCN2CCOCC2)SC(=S)N1C1CC2CCC1C2` (stereo not drawn) [Compound 179] was less than 0.1 µM; that for `O=C1/C(=C/c2oc(-c3ccc(F)cc3)cc2CCCN2CCOCC2)SC(=S)N1C1CC2CCC1C2` (stereo not drawn) [Compound 180] was less than 0.1 µM.
`COc1cc(OC)cc(-c2cc(CCCN3CCOCC3)c(/C=C3\SC(=S)N(C4CC5CCC4C5)C3=O)o2)c1` (stereo not drawn) [Compound 181] returned an EC50 of less than 0.1 µM.
The value for `COc1cc(OC)cc(-c2cc(CCCN3CCOCC3)c(/C=C3\SC(=S)N(C4C5CC6CC(C5)CC4C6)C3=O)o2)c1` (stereo not drawn) [Compound 182] was less than 0.1 µM; that for `O=C1/C(=C/c2oc(-c3ccc(F)cc3)cc2CCCN2CCOCC2)SC(=S)N1C1C2CC3CC(C2)CC1C3` (stereo not drawn) [Compound 183] was less than 0.1 µM.
For the molecule `O=C1/C(=C/c2oc(-c3ccc(Cl)cc3)cc2CCCN2CCOCC2)SC(=S)N1C1C2CC3CC(C2)CC1C3` (stereo not drawn) [Compound 184], the half-maximal effective concentration (EC50) is less than 0.1 µM.
For `O=C1/C(=C/c2oc(-c3ccc(F)cc3)cc2CCCN2CCNCC2)SC(=S)N1C1CC2CCC1C2` (stereo not drawn) [Compound 187], the EC50 is less than 0.1 µM.
In turn, `COc1cc(OC)cc(-c2cc(CCCN3CCNCC3)c(/C=C3\SC(=S)N(C4CC5CCC4C5)C3=O)o2)c1` (stereo not drawn) [Compound 188] showed an EC50 of less than 0.1 µM.
The value for `O=C1/C(=C/c2oc(-c3ccc(F)cc3)cc2CCCN2CCNCC2)SC(=S)N1C1C2CC3CC(C2)CC1C3` (stereo not drawn) [Compound 189] was less than 0.1 µM.
The result for `COc1cc(OC)cc(-c2cc(CCCN3CCNCC3)c(/C=C3\SC(=S)N(C4C5CC6CC(C5)CC4C6)C3=O)o2)c1` (stereo not drawn) [Compound 190] reads less than 0.1 µM.
Regarding `O=C1/C(=C/c2oc(-c3ccc(Cl)cc3)cc2CCCN2CCNCC2)SC(=S)N1C1C2CC3CC(C2)CC1C3` (stereo not drawn) [Compound 191], the EC50 is less than 0.1 µM.
The value for `O=C1/C(=C/c2oc(-c3ccc(Cl)cc3)cc2CCCCCN2CCNCC2)SC(=S)N1C1CC2CCC1C2` (stereo not drawn) [Compound 192] was less than 0.1 µM; that for `N=C(N)NCCCc1cc(-c2ccc(Cl)cc2)oc1/C=C1\SC(=S)N(C2CC3CCC2C3)C1=O` (stereo not drawn) [Compound 197] was less than 0.1 µM.
The result for `COc1cc(OC)cc(-c2cc(CCCn3cc(CO)nn3)c(/C=C3\SC(=S)N(C4C5CC6CC(C5)CC4C6)C3=O)o2)c1` (stereo not drawn) [Compound 199, (Z)-3-(adamantan-2-yl)-5-((5-(3′,5′-dimethoxyphenyl)-3-(3-(4′-(hydroxymethyl)-1H-1′,2′,3′-triazol-1-yl)-propyl)furan-2-yl)methylene)-2-thioxothiazolidin-4-one] reads less than 0.1 µM; that for `COc1cc(OC)cc(-c2cc(CCCOC[C@@H](O)CO)c(/C=C3\SC(=S)N(C4CC5CCC4C5)C3=O)o2)c1` (stereo partly drawn) [Compound 202, (Z)-3-(bicyclo[2.2.1]heptan-2-yl)-5-((3-(3-((S)-2,3-dihydroxypropoxy)propyl)-5-(3′,5′-dimethoxy-phenyl)-furan-2-yl)methylene)-2-thioxothiazolidin-4-one], less than 0.1 µM.
The value for `O=C1/C(=C/c2oc(-c3ccc(Cl)cc3)cc2CCCOC[C@@H](O)CO)SC(=S)N1C1CC2CCC1C2` (stereo partly drawn) [Compound 203, (Z)-3-(bicyclo[2.2.1]heptan-2-yl)-5-((3-(3-((S)-2,3-dihydroxypropoxy)propyl)-5-(4′-chlorophenyl)-furan-2-yl)methylene)-2-thioxothiazolidin-4-one] was less than 0.1 µM.
In turn, `O=C1/C(=C/c2oc(-c3ccc(F)cc3)cc2CCCOC[C@@H](O)CO)SC(=S)N1C1CC2CCC1C2` (stereo partly drawn) [Compound 204, (Z)-3-(bicyclo[2.2.1]heptan-2-yl)-5-((3-(3-((S)-2,3-dihydroxypropoxy)propyl)-5-(4′-fluorophenyl)-furan-2-yl)methylene)-2-thioxothiazolidin-4-one] displayed an EC50 of less than 0.1 µM.
The result for `O=C1/C(=C/c2coc3ccc(Br)cc3c2=O)SC(=S)N1C1CCC2CCCCC2C1` (stereo not drawn) [Compound 206] reads less than 0.1 µM; that for `O=C1/C(=C/c2ccccc2)SC(=S)N1C1CC2CCC1C2` (stereo not drawn) [Compound 207], 0.25 to 1 µM; that for `O=C1/C(=C/c2ccco2)SC(=S)N1C1C2CC3CC(C2)CC1C3` (stereo not drawn) [Compound 209, (Z)-3-(adamantan-2-yl)-5-(furan-2-ylmethylene)-2-thioxothiazolidin-4-one], 0.25 to 1 µM.
The result for `O=C1/C(=C/c2coc3ccc(Br)cc3c2=O)SC(=S)N1C1C2CC3CC(C2)CC1C3` (stereo not drawn) [Compound 210, 3-adamantan-2-yl-5-(6-bromo-4-oxo-4H-chromen-3-ylmethylene)-2-thioxo-thiazolidin-4-one] reads less than 0.1 µM.
`O=C1/C(=C/c2csc3ccccc23)SC(=S)N1C1C2CC3CC(C2)CC1C3` (stereo not drawn) [Compound 211, 3-adamantan-2-yl-5-benzo[b]thiophen-3-ylmethylene-2-thioxo-thiazolidin-4-one]: the EC50 was less than 0.1 µM.
The value for `O=C1/C(=C/c2ccc(Br)s2)SC(=S)N1C1C2CC3CC(C2)CC1C3` (stereo not drawn) [Compound 212] was less than 0.1 µM; that for `O=C1/C(=C/c2cc3cc(Br)ccc3[nH]2)SC(=S)N1C1C2CC3CC(C2)CC1C3` (stereo not drawn) [Compound 213, 3-adamantan-2-yl-5-(5-bromo-1H-indol-2-ylmethylene)-2-thioxo-thiazolidin-4-one] was less than 0.1 µM.
The value for `O=C1/C(=C/c2cc3ccccc3s2)SC(=S)N1C1CC2CCC1C2` (stereo not drawn) [Compound 214, (Z)-5-(benzo[b]thiophen-2-ylmethylene)-3-(bicyclo[2.2.1]heptan-2-yl)-2-thioxothiazolidin-4-one] was less than 0.1 µM; that for `O=C1/C(=C/c2c[nH]c3ccccc23)SC(=S)N1C1C2CC3CC(C2)CC1C3` (stereo not drawn) [Compound 215, 3-adamantan-2-yl-5-(1H-indol-3-ylmethylene)-2-thioxo-thiazolidin-4-one] was less than 0.1 µM.
The result for `O=C1/C(=C/c2c[nH]c3ccccc23)SC(=S)N1C1CC2CCC1C2` (stereo not drawn) [Compound 216, (Z)-5-((1H-indol-3-yl)methylene)-3-(bicyclo[2.2.1]heptan-2-yl)-2-thioxothiazolidin-4-one] reads less than 0.1 µM; that for `O=C1/C(=C/c2cc3ccccc3o2)SC(=S)N1C1CC2CCC1C2` (stereo not drawn) [Compound 217], less than 0.1 µM; that for `O=C1/C(=C/c2cc3ccccc3o2)SC(=S)N1C1C2CC3CC(C2)CC1C3` (stereo not drawn) [Compound 218, 3-adamantan-2-yl-5-benzofuran-2-ylmethylene-2-thioxo-thiazolidin-4-one], less than 0.1 µM.
In the case of `O=C1/C(=C/c2ccco2)SC(=S)N1C1CCCCCC1` [Compound 219, (Z)-3-cycloheptyl-5-(furan-2-ylmethylene)-2-thioxothiazolidin-4-one], the EC50 is 0.25 to 1 µM.
The value for `O=C1/C(=C/c2ccco2)SC(=S)N1C1CCCCC1` [Compound 220] was 0.25 to 1 µM; that for `COC(=O)/C=C/c1ccc(/C=C2\SC(=S)N(C3CC4CCC3C4)C2=O)o1` (stereo not drawn) [Compound 221, (E)-Methyl 3-(5-((Z)-(3-(bicyclo[2.2.1]heptan-2-yl)-4-oxo-2-thioxothiazolidin-5-ylidene)methyl)-furan-2-yl)acrylate] was less than 0.1 µM; that for `CCOC(=O)/C=C/c1ccc(/C=C2\SC(=S)N(C3C4CC5CC(C4)CC3C5)C2=O)o1` (stereo not drawn) [Compound 223, (E)-Ethyl 3-(5-((Z)-(3-(adamantan-2-yl)-4-oxo-2-thioxothiazolidin-5-ylidene)methyl)furan-2-yl)acrylate] was less than 0.1 µM.
The value for `COC(=O)/C=C/c1ccc(/C=C2\SC(=S)N(C3C4CC5CC(C4)CC3C5)C2=O)o1` (stereo not drawn) [Compound 224] was less than 0.1 µM; that for `O=C1/C(=C/c2ccc(-c3ccc(-c4ccccc4)cc3)o2)SC(=S)N1C1CC2CCC1C2` (stereo not drawn) [Compound 226] was less than 0.1 µM.
